Test results taken from ChEMBL document CHEMBL3877252, “Fluorescein hydrazones: A series of novel non-intercalative topoisomerase IIα catalytic inhibitors induce G1 arrest and apoptosis in breast and colon cancer cells” (Eur J Med Chem, 2017).
Active and inactive are the calls of the source. The rule behind the calls is not given here.

Legend:
[1] = Cell cycle arrest in human HCT15 cells assessed as accumulation at G1 phase at 10 uM after 20 hrs by DAPI staining-based cell analyzer (reference value: 61%); type: functional; settings: HCT-15
[2] = Cell cycle arrest in human HCT15 cells assessed as accumulation at G2/M phase at 10 uM after 10 hrs by DAPI staining-based cell analyzer (reference value: 13%); type: functional; settings: HCT-15
[3] = target: T1, DNA topoisomerase 1 (Homo sapiens) (UniProt P11387); experiment: Inhibition of human topoisomerase-1 assessed as inhibition of relaxation of supercoiled pBR322 plasmid DNA at 20 uM measured after 1 hr by ethidium bromide staining based agarose gel electrophoresis relative to control
T1 sequence (whole entry): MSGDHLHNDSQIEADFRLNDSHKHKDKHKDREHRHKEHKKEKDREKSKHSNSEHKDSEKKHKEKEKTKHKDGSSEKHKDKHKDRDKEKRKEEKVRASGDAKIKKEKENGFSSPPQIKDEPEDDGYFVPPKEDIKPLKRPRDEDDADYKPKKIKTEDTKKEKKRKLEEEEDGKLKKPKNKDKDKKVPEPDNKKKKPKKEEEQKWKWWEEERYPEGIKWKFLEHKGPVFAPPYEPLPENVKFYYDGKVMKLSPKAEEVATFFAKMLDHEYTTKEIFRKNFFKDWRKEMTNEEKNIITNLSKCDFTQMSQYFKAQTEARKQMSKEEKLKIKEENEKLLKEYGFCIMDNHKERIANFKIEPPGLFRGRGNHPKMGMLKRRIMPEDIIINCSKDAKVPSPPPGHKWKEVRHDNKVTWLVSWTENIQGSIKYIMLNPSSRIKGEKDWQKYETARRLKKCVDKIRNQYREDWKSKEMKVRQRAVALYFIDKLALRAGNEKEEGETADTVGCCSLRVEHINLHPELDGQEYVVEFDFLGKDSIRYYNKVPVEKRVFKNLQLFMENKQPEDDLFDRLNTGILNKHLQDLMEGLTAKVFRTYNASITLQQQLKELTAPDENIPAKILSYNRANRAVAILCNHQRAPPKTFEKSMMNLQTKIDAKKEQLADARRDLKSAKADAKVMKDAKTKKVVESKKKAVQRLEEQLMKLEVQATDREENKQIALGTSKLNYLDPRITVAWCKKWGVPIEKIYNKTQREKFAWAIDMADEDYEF

[4] = Cell cycle arrest in human HCT15 cells assessed as increase in p27kip1 level measured after 20 hrs; type: functional, cell-based; settings: HCT-15
[5] = tested on: HCT-15; experiment: Induction of apoptosis in human HCT15 cells assessed as increase in cleaved PARP level measured after 24 hrs by Western blot analysis; type: functional, cell-based
[6] = Cell cycle arrest in human HCT15 cells assessed as accumulation at G2/M phase at 1 uM after 20 hrs by DAPI staining-based cell analyzer (reference value: 13%); type: functional; settings: HCT-15
[7] = Cell cycle arrest in human HCT15 cells assessed as accumulation at G1 phase at 10 uM after 15 hrs by DAPI staining-based cell analyzer (reference value: 61%); type: functional; settings: HCT-15
[8] = Cell cycle arrest in human HCT15 cells assessed as accumulation at S phase at 1 uM after 20 hrs by DAPI staining-based cell analyzer (reference value: 34%); type: functional; settings: HCT-15
[9] = target: DNA topoisomerase 2-alpha (Homo sapiens) (UniProt P11388); experiment: Poison activity at topoisomerase-2 alpha in human HCT15 cells assessed as DNA damage by measuring DNA tail length at 5 uM measured after 24 hrs by alkaline comet assay; type: cell-based; settings: HCT-15
[10] = Cell cycle arrest in human HCT15 cells assessed as accumulation at S phase at 10 uM after 20 hrs by DAPI staining-based cell analyzer (reference value: 34%); type: functional; settings: HCT-15
[11] = Cell cycle arrest in human HCT15 cells assessed as accumulation at S phase at 10 uM after 20 hrs by DAPI staining-based cell analyzer (reference value: 10%); type: functional; settings: HCT-15
[12] = Antiproliferative activity against human T47D cells measured after 72 hrs by CCK8 assay; type: functional, cell-based
[13] = Antiproliferative activity against human MCF7 cells measured after 72 hrs by CCK8 assay; type: functional, cell-based; settings: MCF7, 72 h
[14] = Cell cycle arrest in human HCT15 cells assessed as accumulation at G2/M phase at 3 uM after 20 hrs by DAPI staining-based cell analyzer (reference value: 13%); type: functional; settings: HCT-15
[15] = Cell cycle arrest in human HCT15 cells assessed as accumulation at S phase at 10 uM after 15 hrs by DAPI staining-based cell analyzer (reference value: 10%); type: functional; settings: HCT-15
[16] = target: DNA topoisomerase 2-alpha (Homo sapiens) (UniProt P11388); experiment: Inhibition of human topoisomerase-2 alpha assessed as inhibition of relaxation of supercoiled pBR322 plasmid DNA at 100 uM measured after 1 hr by ethidium bromide staining based agarose gel electrophoresis relative to control
[17] = Antiproliferative activity against human HCT15 cells measured after 72 hrs by CCK8 assay; type: functional, cell-based; settings: HCT-15, 72 h
[18] = Cell cycle arrest in human HCT15 cells assessed as decrease in cyclin D1 level at 10 uM; type: functional, cell-based; settings: HCT-15, TDE = time-dependent effect
[19] = target: DNA topoisomerase 2-alpha (Homo sapiens) (UniProt P11388); experiment: Inhibition of human topoisomerase-2 alpha assessed as inhibition of relaxation of supercoiled pBR322 plasmid DNA at 20 uM measured after 1 hr by ethidium bromide staining based agarose gel electrophoresis relative to control
[20] = target: DNA topoisomerase 2-alpha (Homo sapiens) (UniProt P11388); experiment: Poison activity at topoisomerase-2 alpha in human HCT15 cells assessed as DNA damage by measuring DNA tail length at 10 uM measured after 24 hrs by alkaline comet assay; type: cell-based; settings: HCT-15
[21] = Cell cycle arrest in human HCT15 cells assessed as accumulation at G2/M phase at 10 uM after 5 hrs by DAPI staining-based cell analyzer (reference value: 13%); type: functional; settings: HCT-15
[22] = Cell cycle arrest in human HCT15 cells assessed as accumulation at S phase at 3 uM after 20 hrs by DAPI staining-based cell analyzer (reference value: 34%); type: functional; settings: HCT-15
[23] = tested on: HCT-15; experiment: Induction of apoptosis in human HCT15 cells assessed as increase in bax level measured after 24 hrs by Western blot analysis; type: functional, cell-based
[24] = Cell cycle arrest in human HCT15 cells assessed as accumulation at G2/M phase at 10 uM after 20 hrs by DAPI staining-based cell analyzer (reference value: 13%); type: functional; settings: HCT-15
[25] = Cell cycle arrest in human HCT15 cells assessed as accumulation at G1 phase at 10 uM after 10 hrs by DAPI staining-based cell analyzer (reference value: 61%); type: functional; settings: HCT-15
[26] = Cell cycle arrest in human HCT15 cells assessed as accumulation at G1 phase at 1 uM after 20 hrs by DAPI staining-based cell analyzer (reference value: 40%); type: functional; settings: HCT-15
[27] = Cell cycle arrest in human HCT15 cells assessed as accumulation at G1 phase at 10 uM by DAPI staining based cell analyzer; type: functional; settings: HCT-15, TDE = time-dependent effect
[28] = Cell cycle arrest in human HCT15 cells assessed as accumulation at G1 phase at 10 uM after 5 hrs by DAPI staining-based cell analyzer (reference value: 61%); type: functional; settings: HCT-15
[29] = tested on: HCT-15; experiment: Induction of apoptosis in human HCT15 cells assessed as decrease in bcl-2 level measured after 24 hrs by Western blot analysis; type: functional, cell-based
[30] = Cell cycle arrest in human HCT15 cells assessed as accumulation at S phase at 10 uM after 5 hrs by DAPI staining-based cell analyzer (reference value: 10%); type: functional; settings: HCT-15
[31] = target: T1, DNA topoisomerase 1 (Homo sapiens); experiment: Inhibition of human topoisomerase-1 assessed as inhibition of relaxation of supercoiled pBR322 plasmid DNA at 100 uM measured after 1 hr by ethidium bromide staining based agarose gel electrophoresis relative to control
[32] = Cell cycle arrest in human HCT15 cells assessed as accumulation at G1 phase at 10 uM after 20 hrs by DAPI staining-based cell analyzer (reference value: 40%); type: functional; settings: HCT-15
[33] = target: DNA topoisomerase 2-alpha (Homo sapiens) (UniProt P11388); experiment: Inhibition of topoisomerase-2 alpha catalytic activity in human HCT15 cells assessed as appearance of free protein band at 50 uM measured after 2 hrs by Western blot analysis; type: cell-based; settings: HCT-15
[34] = Cell cycle arrest in human HCT15 cells assessed as increase in p27kip1 level at 10 uM; type: functional, cell-based; settings: HCT-15, TDE = time-dependent effect
[35] = Antiproliferative activity against human DU145 cells measured after 72 hrs by CCK8 assay; type: functional, cell-based; settings: DU-145, 72 h
[36] = Cell cycle arrest in human HCT15 cells assessed as decrease in cyclin D1 level measured after 20 hrs; type: functional, cell-based; settings: HCT-15
[37] = Cell cycle arrest in human HCT15 cells assessed as accumulation at G2/M phase at 10 uM after 15 hrs by DAPI staining-based cell analyzer (reference value: 13%); type: functional; settings: HCT-15
[38] = Cell cycle arrest in human HCT15 cells assessed as accumulation at S phase at 10 uM after 10 hrs by DAPI staining-based cell analyzer (reference value: 10%); type: functional; settings: HCT-15
[39] = Cell cycle arrest in human HCT15 cells assessed as accumulation at G1 phase at 3 uM after 20 hrs by DAPI staining-based cell analyzer (reference value: 40%); type: functional; settings: HCT-15

DNA topoisomerase 2-alpha (Homo sapiens), sequence (P11388 whole entry): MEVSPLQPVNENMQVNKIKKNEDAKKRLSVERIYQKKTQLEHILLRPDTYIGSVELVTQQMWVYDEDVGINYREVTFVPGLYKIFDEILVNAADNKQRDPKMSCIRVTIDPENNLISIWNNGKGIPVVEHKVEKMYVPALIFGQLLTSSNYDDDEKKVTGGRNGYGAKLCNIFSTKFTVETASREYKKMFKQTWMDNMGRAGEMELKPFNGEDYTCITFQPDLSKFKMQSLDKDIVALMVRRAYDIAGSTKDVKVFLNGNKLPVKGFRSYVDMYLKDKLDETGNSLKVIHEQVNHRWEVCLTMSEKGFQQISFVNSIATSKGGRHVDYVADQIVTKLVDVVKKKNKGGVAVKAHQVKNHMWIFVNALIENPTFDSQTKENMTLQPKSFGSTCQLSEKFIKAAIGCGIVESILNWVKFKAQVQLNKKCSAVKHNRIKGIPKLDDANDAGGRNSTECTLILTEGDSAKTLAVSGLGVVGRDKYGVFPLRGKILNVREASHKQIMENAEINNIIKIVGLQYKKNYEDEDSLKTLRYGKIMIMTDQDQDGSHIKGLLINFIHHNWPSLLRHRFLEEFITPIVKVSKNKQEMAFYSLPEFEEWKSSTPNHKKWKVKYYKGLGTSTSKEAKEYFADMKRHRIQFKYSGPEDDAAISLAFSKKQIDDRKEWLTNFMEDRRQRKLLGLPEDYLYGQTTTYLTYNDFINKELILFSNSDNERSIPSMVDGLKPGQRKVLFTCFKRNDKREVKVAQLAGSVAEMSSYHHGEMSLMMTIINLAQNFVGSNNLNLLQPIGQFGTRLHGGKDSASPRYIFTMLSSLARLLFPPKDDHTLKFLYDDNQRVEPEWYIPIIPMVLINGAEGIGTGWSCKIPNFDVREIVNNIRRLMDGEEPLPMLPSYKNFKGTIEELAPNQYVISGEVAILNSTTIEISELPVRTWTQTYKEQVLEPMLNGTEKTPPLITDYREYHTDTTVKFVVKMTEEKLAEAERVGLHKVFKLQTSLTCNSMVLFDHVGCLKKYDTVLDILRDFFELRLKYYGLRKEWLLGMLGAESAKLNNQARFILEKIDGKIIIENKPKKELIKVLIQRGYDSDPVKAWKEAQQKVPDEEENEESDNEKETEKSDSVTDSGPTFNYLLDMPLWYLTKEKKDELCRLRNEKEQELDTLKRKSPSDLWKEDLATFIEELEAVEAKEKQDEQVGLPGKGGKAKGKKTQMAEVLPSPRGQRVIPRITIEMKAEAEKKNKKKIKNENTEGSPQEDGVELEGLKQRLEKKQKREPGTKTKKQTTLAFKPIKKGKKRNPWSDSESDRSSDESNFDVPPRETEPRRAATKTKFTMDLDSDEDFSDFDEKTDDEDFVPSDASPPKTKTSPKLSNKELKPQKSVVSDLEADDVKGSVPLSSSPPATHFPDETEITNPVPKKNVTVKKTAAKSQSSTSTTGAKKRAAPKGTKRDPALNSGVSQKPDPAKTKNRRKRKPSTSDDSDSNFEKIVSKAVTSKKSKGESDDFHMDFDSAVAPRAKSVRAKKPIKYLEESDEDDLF

Molecule CCOc1ccc2c(c1)Oc1cc(O)ccc1C21c2ccccc2C(=O)N1/N=C/c1ccccc1[N+](=O)[O-] (centres undefined) has an Activity [1] of 70%, an Activity [2] of 12% and an inhibition [3] of 14.8%. The Activity [4] was “Dose-dependent effect”, the Activity [5] was “Dose-dependent effect” and the Activity [6] was 14%. It also gave an Activity [7] of 68%, an Activity [8] of 28% and an Activity [9] of 7.72 pixel. It also gave an Activity [10] of 20%, an Activity [11] of 7% and an IC50 [12] of over 50000 nM. The IC50 [13] was 11400 nM, the Activity [14] was 11% and the Activity [15] was 8%. For the same molecule, the inhibition [16] was 62.4%, the IC50 [17] was 2400 nM and the Activity [18] was “Tde”. The inhibition [19] was 52.7%, the Activity [20] was 8.29 pixel and the Activity [21] was 11%. The Activity [22] was 24%, the Activity [23] was “Dose-dependent effect” and the Activity [24] was 11 to 12%. For the same molecule, the Activity [25] was 67%, the Activity [26] was 45% and the Activity [27] was “Tde”. The Activity [28] was 64%, the Activity [29] was “Dose-dependent effect” and the Activity [30] was 8%. The inhibition [31] was 35.6%, the Activity [32] was 55% and the inhibition [33] was “Active”. The Activity [34] was “Tde”, the IC50 [35] was 1430 nM and the Activity [36] was “Dose-dependent effect”. The Activity [37] was 11%, the Activity [38] was 8% and the Activity [39] was 48%.
